From PMC12858405, “Ideal efficacy photoswitching for chromocontrol of TRPC4/5 channel functions in live tissues” (Nature Chemical Biology, 2026) come the findings set out here.

The target in one experiment is T1, TRPC4 (Mus musculus, UniProt Q9QUQ5).
T1 construct: expressed in transfected cells; host or cells: HEK293
T1 sequence (Q9QUQ5 1-890 isoform Q9QUQ5-2): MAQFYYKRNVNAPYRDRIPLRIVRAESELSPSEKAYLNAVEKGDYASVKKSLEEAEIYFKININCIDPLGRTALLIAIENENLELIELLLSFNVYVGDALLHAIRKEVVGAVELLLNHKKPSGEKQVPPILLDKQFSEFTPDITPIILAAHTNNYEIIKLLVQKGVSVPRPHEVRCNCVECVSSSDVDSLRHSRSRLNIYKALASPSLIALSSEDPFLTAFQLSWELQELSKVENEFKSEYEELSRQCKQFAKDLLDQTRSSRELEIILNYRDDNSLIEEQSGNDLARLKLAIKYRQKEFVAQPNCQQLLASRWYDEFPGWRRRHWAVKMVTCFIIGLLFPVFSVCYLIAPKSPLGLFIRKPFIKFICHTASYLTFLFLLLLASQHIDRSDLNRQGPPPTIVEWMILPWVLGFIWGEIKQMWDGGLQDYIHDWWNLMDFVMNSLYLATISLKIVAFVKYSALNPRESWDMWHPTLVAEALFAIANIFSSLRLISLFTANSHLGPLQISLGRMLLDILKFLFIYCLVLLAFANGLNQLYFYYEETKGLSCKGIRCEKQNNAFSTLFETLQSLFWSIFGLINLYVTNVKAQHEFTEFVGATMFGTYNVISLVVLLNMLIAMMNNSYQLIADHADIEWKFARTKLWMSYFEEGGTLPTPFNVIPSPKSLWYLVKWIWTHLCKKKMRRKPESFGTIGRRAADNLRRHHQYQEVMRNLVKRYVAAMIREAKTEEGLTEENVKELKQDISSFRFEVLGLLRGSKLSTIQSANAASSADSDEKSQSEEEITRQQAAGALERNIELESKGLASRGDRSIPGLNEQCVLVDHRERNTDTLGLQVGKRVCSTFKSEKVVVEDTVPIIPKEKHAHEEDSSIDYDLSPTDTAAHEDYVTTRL
Put plainly: Whole-cell patch clamp with monochromated photoswitching, TRPC4-expressing HEK293 cells. The class given is cell-based. Particulars: 10 nM, Vh −80 mV, action spectrum 330-505 nm.

Experiment [1] relates to mouse ileal or jejuneal segments. As to the kind of experiment: Myographic isometric contractility of intestinal segments during photoswitching. The text has this:
Basal tension was then restored under 447-nm light and 365/447-nm cycling could be repeated many times (Fig. 6e). […]
7 Spontaneous motility and isometric contractility (Fig. 6)
After sacrificing mice in accordance to the European (Council Directive 2010/63/EU) and German guidelines for the welfare of experimental animals, the abdomen was opened, and intestinal loops were mobilised. Ileal segments were obtained starting 10 mm from the ileocoecal junction. Ileal segments with a length of 3 mm for myography experiments or with a length of 8-12 mm for observation of spontaneous movement were cut out and flushed with carbogen-equilibrated KBRS.
The adventitial layer was carefully peeled off, using a pair of forceps. The remaining intestinal segments, comprising mucosal, submucosal and muscular layers were placed in carbogen-saturated KBRS and immediately used for the experiments. Throughout these experiments, "wild-type" mice have the same genetic background as the knockout mice. For myography experiments, intestinal segments were prepared from mice at the age of 4-7 months. Wild-type control mice were matched in age to the respective knock-out animals.
Mice were housed in groups of two to three animals under the approved standard conditions including a 12 h light-dark-regime and access to food and water ad libitum (see above). Strains for testing intestinal contractility were C57BL6/N mice (from Charles River) and homozygous TRPC5 or TRPC4 single knockout mice,80 both back-crossed on the C57BL6/N background for at least five generations. All mice were of male sex. […]
Myographic isometric contractility: The contractile forces exerted by the circular layer of intestinal segments were quantitatively assessed by measurement in a 4-channel calibrated multi myograph device (DMT 620M, Danish Myo Technology, Hinnerup, Denmark), with digital data acquisition controlled by Labchart software (Version v8; ADINSTRUMENTS). Heated (37°C) bath chambers were filled with carbogen-equilibrated KBRS, and typically 3-mm ileal segments were manoeuvred over custom-made u-shaped hooks that prevented the mucosal layer from prolapsing on the edges. A pre-tension of typically 1.5-2 mN/mm was applied, and ileal segments were allowed […]
solvent (0.5% DMSO). After renewing the pre-tension, the recording of isometric contractions was started, while applying alternating illuminations typically at 365 nm and 447 nm, or else at 385 nm and 470 nm, (typically 10 s exposure each) over typically 9-11 cycles, with no additional illumination […]
segments (N/m) (Fig. 6d-h, Supplementary Fig. 23c-g).
7.1.1 First Saturate with Ligand, Then Dial the Wavelength
Even in the usually tricky situation that a targeted biological effect only occurs when a protein target is partially but not fully stimulated (here: physiology-like contractility as in Fig. 6e, with the overlay of the normal oscillatory frequncy), ideal efficacy switches are still perfectly capable of addressing them robustly. What is possible in the rare case that only fixed operating wavelengths may be available [e.g. in Fig. 6ef, if only 365 nm and 447 nm would be available], would be to use a sub-

From the text for TRPC4: We next performed electrophysiological patch clamp experiments to characterize the action and specificity of channel modulation in more detail. […] Secondly, electrophysiology readouts linearly and temporally resolve ionic currents through the activated channels, unlike the delayed and attenuated fluorometric Ca^2+ influx analyses in FLIPR. Thirdly, the electrophysiology setup can use narrow-bandwidth monochromated light at any wavelength.
The repeatability of on–off photocycling allowed us to extract action spectra for both (1) photoactivation (Fig. 2d,e) and (2) photodeactivation (Fig. 2f,g) in situ in live cells.
The advantage of the ephys setup is that freely chosen monochromated wavelengths can be used for photoswitching, while in parallel there is no optical imaging light to counteract these optimal wavelengths: and this allows for optimising the photoswitchability.
repeatability of on/off photocycling allowed us to extract action spectra for both (1) photoactivation (Fig. 2d,e) and (2) photodeactivation (Fig. 2f,g) in situ in live cells.
physiological whole-cell recordings of TRPC4 currents in voltage clamp mode (a,b,d-g: Vh = -80 mV; c: Vh scan)
return to baseline currents throughout the applied voltage range. d-g, Spectral scans to extract the wavelength […]

For the compound `Cn1c(=O)n(CCCO)c(=O)c2c1nc(Oc1ccc(N=Nc3ccccc3)c(OC(F)(F)F)c1)n2Cc1ccc(Cl)cc1` [AzPico], the “Wavelength range for effective off-photoswitching (channel currents)” value on TRPC4 is 400-480 nm. In experiment [1] (3 nM, 365/447 nm), the “Response of segments of TRPC4-deficient mice” value is given as “never responded”. Also, in experiment [1] (3 nM, wild-type segments), the “Increase of oscillatory forces under 365 nm” value turned out to be 1.9 ×. In addition, the “Time to recovery of oscillatory contractions under 447 nm” value in experiment [1] (30 nM, after 365 nm rictus-like state) lay in the range of 10 to 30 s. Also, the “Effect of 365 nm at moderate to high concentration” value in experiment [1] (30 nM, 365 nm) is “rictus-like intestinal tensioning and rundown”. In addition, the “Photoswitchability after medium replacement” value in experiment [1] (300 nM preincubated 2 h, then washed 2 h, 385/470 nm) was “remain perfectly photoreversibly operable”. Moreover, the “Effect of 385 nm at saturating concentration” value in experiment [1] (300 nM, 385 nm) is “only partial channel activation”. For the same compound, the “Tonic and oscillatory force photoresponses in TRPC5-deficient mice vs matched control mice” value in experiment [1] (365/447 nm) was “indistinguishable”.
